According to PMC6158578, “Optimization and Lead Selection of Benzothiazole Amide Analogs Toward a Novel Antimycobacterial Agent” (Frontiers in Microbiology, 2018):
Values after ≈ are worked out from the molar mass of the structure shown. Where two headings read alike, the source gives them in different places.

Experiments:
Other NTM (n = 12) = experiment: MIC against rapid-growing NTM clinical isolates; type: cell-based; conditions: Other NTM (n = 12); for MIC90: read-out: MIC90
M. abscessus 1 = experiment: MIC in MHB versus 7H9+OADC; type: cell-based
[1] = type: cell-based; conditions: for Interpretation of checkerboard synergy testing: antibiotic in combination with CRS400393 (benzothiazole amides)
[2] = test system: M. fortuitum (n = 11) clinical isolates; experiment: MIC against rapid-growing NTM clinical isolates; type: cell-based; conditions: M. fortuitum (n = 11); for MIC90: Mycolicibacterium fortuitum, read-out: MIC90
M. abscessus 79 = experiment: MIC in MHB versus 7H9+OADC; type: cell-based
[3] = test system: M. chelonae (n = 11) clinical isolates; experiment: MIC against rapid-growing NTM clinical isolates; type: cell-based; conditions: M. chelonae (n = 11); for MIC90: Mycobacteroides chelonae, read-out: MIC90
M. abscessus 21 = experiment: MIC in MHB versus 7H9+OADC; type: cell-based
[4] = test system: M. abscessus (n = 20) clinical isolates; experiment: MIC against rapid-growing NTM clinical isolates; type: cell-based; conditions: Mycobacteroides abscessus; M. abscessus (n = 20); read-out: MIC90
[5] = antibiotic in checkerboard combination with CRS400393

Compound NCC[C@H](O)C(=O)N[C@@H]1C[C@H](N)[C@@H](O[C@H]2O[C@H](CN)[C@@H](O)[C@H](O)[C@H]2O)[C@H](O)[C@H]1O[C@H]1O[C@H](CO)[C@@H](O)[C@H](N)[C@H]1O [Amikacin, reference compound] has an MIC range (Other NTM (n = 12)) of 0.5 to 16 µg/mL, an MIC90 (Other NTM (n = 12)) of 16 µg/mL (≈ 27.3 µM) and an MIC (M. abscessus 1; M. abscessus 1, 7H9 + OADC (5 mg/mL albumin)) of 16 µg/mL. For the same compound, the MIC (M. abscessus 1; M. abscessus 1, MHB) was 8 µg/mL (≈ 13.7 µM), the “FIC Index” value [1, 5] was 1 and the “Interpretation of checkerboard synergy testing” value (“Interpretation” for short) [1] was “additive”. For the same compound, the MIC range [2] was 0.5 to 4 µg/mL, the MIC90 [2] was 2 µg/mL (≈ 3.42 µM) and the MIC (M. abscessus 79; M. abscessus 79, 7H9 + OADC (5 mg/mL albumin)) was 4 µg/mL. The MIC (M. abscessus 79; M. abscessus 79, MHB) was 2 µg/mL (≈ 3.42 µM), the MIC90 [3] was > 16 µg/mL and the MIC (M. abscessus 21; M. abscessus 21, 7H9 + OADC (5 mg/mL albumin)) was 4 µg/mL. The MIC (M. abscessus 21; M. abscessus 21, MHB) was 2 µg/mL (≈ 3.42 µM) and the MIC90 [4] was 16 µg/mL (≈ 27.3 µM).
For CC[C@H]1OC(=O)[C@H](C)[C@@H](O[C@H]2C[C@@](C)(OC)[C@@H](O)[C@H](C)O2)[C@H](C)[C@@H](O[C@@H]2O[C@H](C)C[C@H](N(C)C)[C@H]2O)[C@](C)(O)C[C@@H](C)CN(C)[C@H](C)[C@@H](O)[C@]1(C)O [Azithromycin, reference compound], the MIC90 (Other NTM (n = 12)) was > 8 µg/mL, the “FIC Index” value [1, 5] was 1 and the “Interpretation” value [1] was “additive”. The MIC90 [2] was > 8 µg/mL, the lung histology (Mabs 21; after 4 weeks of treatment) was “only minimal pathologic evidence of inflammatory infiltrates” and the “reduction of lung CFU compared to the untreated group” value (Mabs 21; oral gavage 100 mg/kg, 4 weeks) was 0.38 Log10 CFU. The MIC range [3] was 0.12 to 0.5 µg/mL, the MIC90 [3] was 0.5 µg/mL (≈ 0.668 µM) and the MIC90 [4] was > 8 µg/mL.
For COc1nc2ccc(Br)cc2cc1[C@@H](c1ccccc1)[C@@](O)(CCN(C)C)c1cccc2ccccc12 [Bedaquiline], the “FIC Index” value [1, 5] was 2, the “Interpretation” value [1] was “indifferent” and the “Interpretation” value ([1]; listed as bedaquiline) was “indifference”.
In the case of CO[C@@]1(NC(=O)Cc2cccs2)C(=O)N2C(C(=O)O)=C(COC(N)=O)CS[C@@H]21 [Cefoxitin], the “FIC Index” value [1, 5] is reported as 0.56 and the “Interpretation” value [1] is reported as “additive”.
In the case of CC(C)/N=c1\cc2n(-c3ccc(Cl)cc3)c3ccccc3nc-2cc1Nc1ccc(Cl)cc1 [Clofazimine], the “FIC Index” value [1, 5] is reported as 0.52 and the “Interpretation” value [1] is reported as “additive”.
In the case of C[C@H]1c2cccc(O)c2C(=O)C2=C(O)[C@]3(O)C(=O)C(C(N)=O)=C(O)[C@@H](N(C)C)[C@@H]3[C@@H](O)[C@@H]21 [Doxycycline], the “FIC Index” value [1, 5] is reported as 2, the “Interpretation” value [1] is reported as “indifferent” and the “Interpretation” value ([1]; listed as doxycycline) is reported as “indifference”.
For CC(=O)NC[C@H]1CN(c2ccc(N3CCOCC3)c(F)c2)C(=O)O1 [Linezolid, reference compound], the MIC90 (Other NTM (n = 12)) was > 8 µg/mL, the “FIC Index” value [1] was 0.56 and the MIC90 [2] was > 8 µg/mL. The MIC range [3] was 1 to 8 µg/mL, the MIC90 [3] was 8 µg/mL (≈ 23.7 µM) and the MIC90 [4] was > 8 µg/mL.
With Cc1cc(NS(=O)(=O)c2ccc(N)cc2)no1 [Sulfamethoxazole] the “FIC Index” value [1] was 0.56.
In the case of NC[C@H]1O[C@H](O[C@H]2[C@H](O)[C@@H](O[C@H]3O[C@H](CO)[C@@H](O)[C@H](N)[C@H]3O)[C@H](N)C[C@@H]2N)[C@H](N)C[C@@H]1O [Tobramycin], the “FIC Index” value [1, 5] is reported as 0.75 and the “Interpretation” value [1] is reported as “additive”.
